From PubChem BioAssay (NCI) come the findings set out here.

Each structure is given as a SMILES string. Where “and” joins values, the source holds several entries; their conditions need not be identical. Identical values can stand only once.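 96-well plates; 48 h exposure; 5 concentrations. Endpoints by linear interpolation between flanking doses. Not reached: highest tested concentration assigned. GI50 = concentration required for 50% inhibition of growth. The concentration for full growth arrest is given as TGI.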

Holding throughout (assay): NCI tumour cell line growth inhibition, 48 h
Assay [1] relates to OVCAR-4 ovarian.
The subject of assay [2] is TK-10 renal.
Assay [3] has as its system SF-539 CNS.
For assay [4], the system named is PC-3 prostate.
The subject of assay [5] is SNB-19 CNS.
For assay [6], the system named is MALME-3M melanoma.
Assay [7] relates to HCT-116 colon.
Assay [8] deals with OVCAR-3 ovarian.
The test system of assay [9] is CCRF-CEM leukemia.
Assay [10] has as its system RXF 393 renal.

Consider `O=C(O[C@H]1CCN2C[C@H]3C[C@H](CN4C(=O)CCC[C@H]34)[C@@H]2C1)c1ccc(O)cc1`, for which the TGI in assay [1], in assay [2], in assay [3], in [4], in assay [5] and in [6] was above 100 µM in each case. Moreover, the TGI in assay [7], in assay [8], in assay [9] and in assay [10] was above 100 µM in each case.
Turning to `Cc1cc(Cl)cc(Cc2cc(Cl)cc(C)c2O)c1O`, the GI50 in assay [1] was 3.29 µM; in assay [2] it was 3.97 µM; in [3] it was 2.45 µM; in [4], 2.55 µM; in assay [5], 3.32 µM; in assay [6], 2.35 µM. Moreover, the GI50 is 2.13 µM in assay [7], 2.35 µM in assay [8], 3.08 µM in assay [9] and 2.29 µM in [10]. The TGI in [1] was found to be 50.6 µM; in [2], 12 µM; in [3], 6.62 µM; in assay [4], 8.68 µM; in [5] it was 16.8 µM; in [6] it was 6.86 µM. The TGI in assay [7] worked out at 5.54 µM; in assay [8] it was 7.83 µM; in [9], 16.1 µM; in assay [10], 6.91 µM.
Turning to `CCC[CH2][Pb]([Cl])([CH2]CCC)[CH2]CCC`, the GI50 in assay [1] was 0.0472 µM; in assay [2] it was 0.0317 µM; in assay [3] it was 0.0338 µM; in [4], 0.0355 µM; in assay [5], 0.188 µM; in [6], 0.00428 µM. The GI50 in assay [7] was 0.0176 µM; in assay [8], 0.0204 µM; in [9] it was 0.0553 µM; in assay [10], 0.0231 µM. Further, the TGI in assay [1] amounted to 0.184 µM; in [2], 0.0913 µM; in assay [3], 0.0892 µM; in assay [4], 0.119 µM; in [5], 0.33 µM; in [6], 0.0261 µM. The TGI was found to be 0.0345 µM in assay [7], 0.0499 µM in [8], 1.15 µM in assay [9] and 0.0635 µM in [10].
For `CN(C)c1ccc(N=C2C=CC(=O)c3ccccc32)cc1`, the GI50 in assay [1] is 2.02 µM; in assay [2], 17 µM; in assay [3], 3.11 µM; in assay [4], 2.66 µM; in [5], 3.42 µM; in [6], 1.6 µM. The GI50 in assay [7] was 2.88 µM; in assay [8], 1.28 µM; in [9] it was 2.13 µM; in assay [10], 3.2 µM. Moreover, the TGI stood at 10.4 µM in assay [1]; 31 µM in assay [2]; 11.4 µM in assay [3]; 19.8 µM in assay [4]; 13.9 µM in assay [5]; 3.75 µM in [6]. The TGI in [7] worked out at 13.3 µM; in [8], 3.08 µM; in assay [9], 6.17 µM; in assay [10], 14.5 µM.
As to `Nc1ncnc2c1ccn2[C@@H]1O[C@H]([C@H](O)c2ccc(Cl)c(F)c2)[C@@H](O)[C@H]1O`, the GI50 in assay [1], in assay [2], in assay [3], in [4], in assay [5] and in assay [6] was above 100 µM in each case. Further, the GI50 in [7] was above 100 µM; in assay [8], above 100 µM; in assay [9], above 100 µM; in [10] it was 66.5 µM. The TGI in [1], in assay [2], in assay [3], in assay [4], in assay [5] and in assay [6] was above 100 µM each time. Further, the TGI in assay [7], in assay [8], in assay [9] and in assay [10] was above 100 µM each time.
`Nc1ccc(Sc2c3ccccc3nc3ccccc23)cc1`: the TGI in assay [1] came to 29.4 µM; in assay [2], 34.2 µM; in assay [3], 31 µM; in assay [4] it was 25.7 µM; in [5] it was 51.6 µM; in assay [6] it was 36.2 µM. The TGI in assay [7] came to 26.1 µM; in assay [8] it was 29.2 µM; in assay [9] it was 30.2 µM; in assay [10], 40.4 µM.
For `O=[N+]([O-])c1cc2c([N+](=O)[O-])cccc2o1`, the TGI stood at 3.63 µM in assay [1]; 23.8 µM in [2]; 6.67 µM in [3]; 36.1 µM in [4]; 36 µM in assay [5]; 30.1 µM in assay [6]. Also, the TGI in [7] was above 100 µM; in assay [8] it was 21.8 µM; in assay [9] it was 5.05 µM; in assay [10] it was 20 µM.
With `C[C@@H](Oc1cc(-n2cnc3ccc(OC[C@@H](O)CO)cc32)sc1C(N)=O)c1ccccc1Cl`, the GI50 is 4.15 µM in assay [1]; 0.894 µM in [2]; 0.133 µM in assay [3]; 0.126 µM in [4]; 0.339 µM in [5]; 7.14 µM in [6]. The GI50 in assay [7] was 0.116 µM; in [8] it was 0.0491 µM; in assay [9], 0.0127 µM; in assay [10], 0.0653 µM. Also, the TGI was above 25 µM in assay [1]; 10.7 µM in assay [2]; above 25 µM in [3]; above 25 µM in assay [4]; above 25 µM in [5]; above 25 µM in assay [6]. For the same compound, the TGI in [7] was above 25 µM; in [8] it was 0.176 µM; in assay [9] it was 24.6 µM; in [10] it was 2.08 µM.
For the compound `Cc1ccc(S(=O)(=O)N2CCc3ccc(O)c4c3C2Cc2ccc3c(c2-4)OCO3)cc1` (stereo not given), the GI50 in assay [1] was 0.934 µM; in assay [2] it was 3.48 µM; in assay [3] it was 1.02 µM; in assay [4], 0.808 µM; in assay [5] it was 1.4 µM; in [6] it was 0.775 µM. Also, the GI50 in [7] was 0.451 µM; in [8], 0.286 µM; in [9] it was 0.847 µM; in assay [10], 0.853 µM. In addition, the TGI in assay [1] is 33.3 µM; in [2], 29.2 µM; in assay [3], 5.26 µM; in [4], 19.5 µM; in [5], above 100 µM; in assay [6], 30.4 µM. Besides, the TGI in assay [7] was 10.6 µM; in assay [8], 0.707 µM; in [9], above 27.6 µM; in assay [10], 5.96 µM.
Take `Cc1ccc(OCC2OC(n3cnc4c(Br)nc(Br)nc43)CC2Oc2ccc(C)cc2)cc1` (stereo not given): the GI50 was 1.56 µM in assay [1]; 14.4 µM in assay [2]; 0.466 µM in [3]; 5.42 µM in assay [4]; 11.8 µM in assay [5]; 6.5 µM in [6]. The GI50 in assay [7] is 5.29 µM; in [8], 3.77 µM; in assay [9], 1.8 µM; in [10], 13.3 µM. The TGI in assay [1] is 4.84 µM and 7.55 µM; in assay [2], 28.4 µM and > 54.3 µM; in assay [3], 10.2 µM and 15.6 µM; in assay [4], 16.2 µM and 11.8 µM; in [5], 22.9 µM and 17.8 µM; in assay [6], 16.3 µM and 21.6 µM. The TGI is 14.5 µM and 3.6 µM in [7]; 14.3 µM and 19.1 µM in [8]; 3.44 µM and > 25.5 µM in assay [9]; 28.2 µM and 22.4 µM in [10].
For `CCn1ccc(NS(=O)(=O)c2ccc(N)cc2)nc1=O`, the GI50 in assay [1], in assay [2], in [3], in assay [4], in [5] and in assay [6] was above 100 µM in each case. For the same compound, the GI50 in [7], in assay [8], in assay [9] and in assay [10] was above 100 µM in each case. Also, the TGI in assay [1], in [2], in [3], in assay [4], in assay [5] and in [6] was above 100 µM in each case. In addition, the TGI in assay [7], in assay [8], in assay [9] and in assay [10] was above 100 µM in each case.
As to `FC(F)(F)c1cc(Nc2ccc3cc(OCCCN4CCOCC4)ccc3n2)ccc1Cl`, the GI50 in assay [1] is 2.54 µM; in assay [2], 2.64 µM; in assay [3], 1.75 µM; in [4], 1.09 µM; in assay [5] it was 1.84 µM; in [6] it was 1.67 µM. For the same compound, the GI50 in [7] is 1.65 µM; in assay [8], 1.93 µM; in assay [9], 2.03 µM; in assay [10] it was 1.39 µM. Also, the TGI is 12.8 µM in assay [1]; 5.86 µM in [2]; 3.73 µM in assay [3]; 2.68 µM in [4]; 3.79 µM in assay [5]; 4.34 µM in [6]. Also, the TGI in assay [7] was found to be 3.14 µM; in assay [8], 4.47 µM; in [9], 9.18 µM; in assay [10], 3.22 µM.
